According to patent US10729713B2, “Pharmaceutical composition for treating hepatitis, liver fibrosis, and liver cancer” (GUANGDONG PROVINCIAL HOSPITAL OF CHINESE MEDICINE, priority 2016, dated 2020):

How the values were obtained:
HBV = assay: Inhibition of HBV replication in HepG2.215 cells (HBsAg/HBeAg by ELISA, HBV gene by fluorescent quantitative PCR); type: cell-based, Hepatitis B Virus; conditions: for Expression of HBV gene / HBeAg / HBsAg: normalized, 100% for control group; for HBeAg / HBsAg: HepG2.215 supernatant, 48 h
Experimental: The drug of Example 4 is used. The concentration of Adefovir Dipivoxil was 1 μmol, and the vinegar-baked bupleurum root polysaccharides are at a medium dosage in corresponding dosage, one-half of the medium dosage is a low dosage, and twice of the medium dosage is a high dosage.
The experiment is started with HepG2.215 cells that were grown to 80% confluence.
The cells were assigned to 5 groups, comprising a blank control group, a treatment group with Adefovir Dipivoxil, a treatment group with Adefovir Dipivoxil in combination with high dosage of vinegar-baked bupleurum root polysaccharides, a treatment group with Adefovir Dipivoxil in combination with medium dosage of vinegar-baked bupleurum root polysaccharides, and a treatment group with Adefovir Dipivoxil in combination with low dosage of vinegar-baked bupleurum root polysaccharides. Culturing for 48 h after administration, the supernatant is collected, the expression of the HBV gene is determined by fluorescent quantitative PCR, and the HBsAg and HBeAg concentrations are determined by ELISA.
The experiment is started with HepG2.215 cells that are grown to 80% confluence. The cells were assigned to 5 groups, comprising a blank control group, a treatment group with Tenofovir, a treatment group with Tenofovir in combination with high, medium, and low dosage of vinegar-baked bupleurum root polysaccharides. The concentration of Tenofovir is 0.8 μmol, the medium dosage of vinegar-baked bupleurum root polysaccharides is a corresponding dosage in Example 7, one-half of which is the low dosage, and twice of which is the high dosage. Culturing for 48 h after administration, the supernatant is collected, the expression of the HBV gene is determined by fluorescent quantitative PCR, and the HBsAg and HBeAg concentrations are determined by ELISA.

[1] = In vivo distribution of Entecavir in mice; conditions: Entecavir 0.1 mg/kg, 5 consecutive days, combination with high dosage of polysaccharides (as Example 5), n = 6
Experimental: The bupleurum root polysaccharides enhance the distribution of Entecavir in liver, and reduce its distribution in other tissues.
The drug of Example 5 is used.
20 male mice are fasted for one night, but free accessed to water before the experiment. The animals are divided into three groups according to body weight, including a treatment group with Entecavir, and treatment groups with bupleurum root polysaccharides combined with Entecavir. The animals are administered for 5 consecutive days. The dosage of Entecavir is 0.1 mg/kg, and the corresponding dosage of bupleurum root polysaccharides in Example 5 is a high dosage, one-half of which is a low dosage. The animals are sacrificed after the last administration and the blood, heart, liver, spleen, lung, kidney, intestine, stomach, bone marrow, and brain are taken. 100 μL of plasma is directly precipitated by adding 800 μL of acetonitrile, and the supernatant is frozen and centrifuged. 500 μL of the supernatant is blow dried with nitrogen, and 100 μL of the mobile phase is added for reconstitution, and injected for analysis. 0.1 g of the tissue is added with 1 mL of water and homogenized. The homogenate is treated following the treatment method for the plasma.
Effect of bupleurum root polysaccharides on in vivo distribution of Entecavir (ng/mL)

[2] = Plasma and tissue distribution of Lamivudine in rats, liquid chromatography; type: in vivo, rat; conditions: Lamivudine 15 mg/kg, n = 6
Experimental: The pharmaceutical composition of the present invention enhances the Lamivudine level in the rat liver. Grouping of the test animals and administration are the same as the Example 1 (except that the drug used is the same as Example 3). The dosage of Lamivudine is 15 mg/kg, and the bupleurum root polysaccharides are at a corresponding dosage. The Lamivudine content was determined by liquid chromatography. 0.1 mL of plasma is added with 10 μL of 0.2 mol ammonium acetate, and then with 1 mL of acetonitrile, vortexed, and centrifuged. The supernatant is collected and injected for determination. 0.1 g of the tissue sample is added with 1 mL of physiological saline, homogenized, and treated following the same method as for the plasma sample. The Lamivudine contents in the plasma and tissue sample are determined.

[3] = drug modified with monophosphorylation, compared with the control group; cited from earlier work
[4] = Tissue distribution of oxymatrine (OM) and its metabolite matrine (M) in rats, LC-MS; type: in vivo, rat; conditions: po, OM 54 mg/kg single administration, sampled at 20, 60, 240 min, n = 6
Experimental: The pharmaceutical composition of the present invention enhances the distribution of oxymatrine (OM) in the rat liver. 36 rats are acclimated for 7 days, and randomized into a treatment group with oxymatrine (OM) alone, and a treatment group with a combined drug of the present invention (drug in Example 1). Wherein, the dosage of oxymatrine (OM) is 54 mg/kg, and the bupleurum root polysaccharides are used at a corresponding dosage in Example 1. After a single administration, blood is sampled from the abdominal aorta respectively at 20 min, 60 min, and 240 min. The rat is sacrificed, from which the liver, spleen, lung, kidney, and heart are removed. […] The concentrations of oxymatrine (OM) and its metabolite (M) are determined by LC-MS, the content in the tissue and the area under the curve are calculated.

[5] = tested on: duck hepatitis B virus (DHBV); assay: Effect against duck hepatitis B virus in DHBV-infected ducklings; type: in vivo; conditions: DHBV-infected ducks; Telbivudine 80 mg·kg^−1 alone, gastric perfusion twice a day, 10 days; 100% for control group
[6] = HepG2.215, 48 h, text summary of Table 4
[7] = Adefovir Dipivoxil 1 μmol alone

CC(C)(C)C(=O)OCOP(=O)(COCCn1cnc2c(N)ncnc21)OCOC(=O)C(C)(C)C [Adefovir Dipivoxil]
Expression of HBV gene (HBV; HepG2.215, 48 h, Adefovir Dipivoxil 1 μmol alone): 50 ± 5.3% | inhibition rate for gene expression (HBV; [6]): 50% | inhibition rate on the replication of HBV (HBsAg, HBeAg) (HBV; [6]): 60-65% | HBeAg (HBV; [7]): 40 ± 3.4% | HBsAg (HBV; [7]): 35 ± 1.2%

C=C1[C@H](CO)[C@@H](O)C[C@@H]1n1cnc2c(=O)[nH]c(N)nc21 [Entecavir]
Entecavir concentration, Marrow ([1]; mouse bone marrow): 18.9 ng/L | Entecavir concentration, Heart ([1]; mouse heart): 26.14 ng/L | Entecavir concentration, Instine ([1]; mouse intestine): 24.3 ng/L | Entecavir concentration, Kidney ([1]; mouse kidney): 27.5 ng/L | Entecavir concentration, Liver ([1]; mouse liver): 26.8 ng/L | Entecavir concentration, Lung ([1]; mouse lung): 26.3 ng/L | Entecavir concentration, Plasma ([1]; mouse plasma): 30.6 ng/L | Entecavir concentration, Spleen ([1]; mouse spleen): 28.4 ng/L | Entecavir concentration, Stomach ([1]; mouse stomach): 25.6 ng/L

Nc1ccn([C@@H]2CS[C@H](CO)O2)c(=O)n1 [Lamivudine]
AUC ([2]; rat heart, read-out: AUC of Lamivudine, Heart): 26.8 ng·h/mL | AUC ([2]; rat kidney, read-out: AUC of Lamivudine, Kidney): 24.3 ng·h/mL | AUC ([2]; rat liver, read-out: AUC of Lamivudine, Liver): 27.3 ng·h/mL | AUC ([2]; rat lung, read-out: AUC of Lamivudine, Lung): 23.1 ng·h/mL | AUC ([2]; rat plasma, read-out: AUC of Lamivudine, Plasma): 25.4 ng·h/mL | AUC ([2]; rat spleen, read-out: AUC of Lamivudine, Spleen): 30.2 ng·h/mL | AUC ([2]; rat stomach, read-out: AUC of Lamivudine, Stomach): 28.8 ng·h/mL | increase of AUC [3]: 11.2 times | increase of the concentration of Lamivudine in the liver [3]: 7.7 times

O=C1CCC[C@@H]2[C@H]3CCC[N+]4([O-])CCC[C@@H](CN12)[C@@H]34 (some centres unmarked) [OM, oxymatrine]
AUC ([4]; rat heart, read-out: AUC of oxymatrine, Heart): 125 ng·h/mL | AUC ([4]; rat kidney, read-out: AUC of oxymatrine, Kidney): 69.7 ng·h/mL | AUC ([4]; rat liver, read-out: AUC of oxymatrine, Liver): 125 ng·h/mL | AUC ([4]; rat lung, read-out: AUC of oxymatrine, Lung): 366 ng·h/mL | AUC ([4]; rat plasma, read-out: AUC of oxymatrine, Plasma): 520 ng·h/mL | AUC ([4]; rat spleen, read-out: AUC of oxymatrine, Spleen): 64.9 ng·h/mL

Cc1cn([C@@H]2C[C@@H](O)[C@H](CO)O2)c(=O)[nH]c1=O [Telbivudine]
Expression of HBV gene [5]: 50.5 ± 5.3% | HBeAg [5]: 37.2 ± 3.4% | HBsAg [5]: 30 ± 1.3%

C[C@H](Cn1cnc2c(N)ncnc21)OCP(=O)(O)O [Tenofovir]
Expression of HBV gene (HBV; HepG2.215, 48 h, Tenofovir 0.8 μmol alone): 45.2 ± 5.3% | HBeAg (HBV; Tenofovir 0.8 μmol alone): 39.8 ± 2.4% | HBsAg (HBV; Tenofovir 0.8 μmol alone): 33.2 ± 1.2%
